In patent US6350768B1 (Aventis Pharma S.A., priority 1999, dated 2002):

Tested on: purified rat motoneurons
Conditions: BDNF 1 ng/ml
Experimental: The effect of the combination has been studied on the cellular death of purified rat motoneurons which is induced by sera from patients suffering from amyotrophic lateral sclerosis.
Purified motoneurons prepared from the spinal cord of rat embryos at 14 days of gestation are cultured in the presence of optimum concentrations of recombinant “brain-derived neurotrophic factor” (BDNF), one of the principal neurotrophic factors for the survival of the motoneurons. […] After a further 2 hours, dilutions of dialyzed sera from patients suffering from ALS are added. On the next day, the number of surviving motoneurons is evaluated by direct counting under a phase contrast microscope.
The stock solution of gabapentin is prepared directly by dissolving 17.1 mg of gabapentin in 1 ml of double distilled water.
Rat embryos at 14 days of gestation (Charles River, France) are recovered after sacrificing the mother, under CO2 anesthesia, by pulling the neck. These embryos are placed in phosphate buffer (“phosphate-buffered saline”, PBS) free of calcium and magnesium (Life Technologies).
Unless otherwise stated, the composition of the media used is identical to that indicated in these references. Spinal cords from rat embryos at 14 days of gestation are dissected in sterile PBS and the ventral halves of each cord containing the motoneurons are subdissected. […]

SMILES: NCC1(CC(=O)O)CCCCC1 [Gabapentin]
- Number of motoneurons, Mean (± SEM) (mean of 8 measurements, 4 wells, ALS serum 0.1%, Gabapentin 10^−5 M alone): 5.0
- survival of the motoneurons (medium treated with gabapentin alone, ALS serum): 8%
